Values of other authors in patent US20220152000A1, “PROLONGED RELEASE FORMULATION COMPRISING TACROLIMUS” (PHARMATHEN S.A., priority 2019, published 2022).
In brackets after ≈: the same amount, converted by molar mass.

Columns and labels:
[1] = simultaneous ingestion of food versus fasted
[2] = biological target: T1, CYP3A4 isoenzyme (Homo sapiens, UniProt P08684); details: gut wall and liver
T1 construct: metabolized by the CYP3A4 isoenzyme in the gut wall and liver; from tissue; host or cells: gut wall and liver
T1 sequence (P08684 whole entry): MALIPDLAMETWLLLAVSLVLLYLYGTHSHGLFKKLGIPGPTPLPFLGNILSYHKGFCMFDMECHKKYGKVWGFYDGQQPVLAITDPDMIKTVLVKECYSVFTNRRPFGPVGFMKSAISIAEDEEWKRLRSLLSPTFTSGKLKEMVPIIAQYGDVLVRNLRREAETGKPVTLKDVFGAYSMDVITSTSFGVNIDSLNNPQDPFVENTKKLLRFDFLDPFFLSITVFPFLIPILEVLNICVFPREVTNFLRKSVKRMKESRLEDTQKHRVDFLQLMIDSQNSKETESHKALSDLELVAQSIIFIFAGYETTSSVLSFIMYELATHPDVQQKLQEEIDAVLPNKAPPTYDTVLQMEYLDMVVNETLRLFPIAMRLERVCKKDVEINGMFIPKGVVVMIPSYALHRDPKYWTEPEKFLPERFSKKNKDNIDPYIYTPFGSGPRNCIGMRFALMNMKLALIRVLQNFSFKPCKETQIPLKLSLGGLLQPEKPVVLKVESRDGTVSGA

C=CC[C@@H]1/C=C(\C)C[C@H](C)C[C@H](OC)[C@H]2O[C@@](O)(C(=O)C(=O)N3CCCC[C@H]3C(=O)O[C@H](/C(C)=C/[C@@H]3CC[C@@H](O)[C@H](OC)C3)[C@H](C)[C@@H](O)CC1=O)[C@H](C)C[C@@H]2OC [Tacrolimus]
Solubility in ethanol (ethanol): 25 mg/mL (≈ 31.1 mM)
Solubility in hexane, petroleum ether (hexane, petroleum ether): sparingly soluble
Solubility in organic solvents (methanol, ethanol, acetone, ethyl acetate, diethyl ether, chloroform, dicloromethane): soluble
Solubility in water (water): insoluble
Absorption after oral administration, effect of food [1]: negatively influenced by simultaneous ingestion of food
Metabolism by CYP3A4 [2]: extensively metabolized
